Reference: ChEMBL document CHEMBL1201862, “PubChem BioAssay data set” (2004)
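Dose response: 5 concentrations. Exposure: 48 h. Format: 96-well plates. Endpoint: linear interpolation; highest concentration if not reached. Abbreviation: GI50, concentration required for 50% inhibition of growth.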 Calls of active or inactive are those of the source. Cut-off read from the data, not from the text of the source: active = GI50 up to about 1.1 µM and inactive = higher.

Key:
Experiment in all cases: growth of human tumour cells (NCI), 48 h
KM12 = test system: KM12
K562 = test system: K562
KM-20L2 = test system: KM-20L2
SK-MEL-5 = test system: SK-MEL-5
RPMI-8226 = test system: RPMI-8226
SK-OV-3 = test system: SK-OV-3
UO-31 = test system: UO-31
NCI-H460 = test system: NCI-H460
ACHN = test system: ACHN
LXFL 529 = test system: LXFL 529
COLO 205 = test system: COLO 205
UACC-257 = test system: UACC-257
HCC 2998 = test system: HCC 2998
HCT-116 = test system: HCT-116
XF498 = test system: XF498
SK-MEL-2 = test system: SK-MEL-2
TK-10 = test system: TK-10
MOLT-4 = test system: MOLT-4
CCRF-CEM = test system: CCRF-CEM
M14 = test system: M14
UACC-62 = test system: UACC-62
HT-29 = test system: HT-29
LOX IMVI = test system: LOX IMVI
U-251 = test system: U-251
IGROV-1 = test system: IGROV-1
SK-MEL-28 = test system: SK-MEL-28
RXF 393 = test system: RXF 393
SR = test system: SR
HCT-15 = test system: HCT-15
SF-295 = test system: SF-295
OVCAR-8 = test system: OVCAR-8
A549 = test system: A549
A498 = test system: A498
Malme-3M = test system: Malme-3M
OVCAR-4 = test system: OVCAR-4
786-0 = test system: 786-0
DLD-1 = test system: DLD-1
DMS-114 = test system: DMS-114
SF-268 = test system: SF-268
SNB-75 = test system: SNB-75
SNB-19 = test system: SNB-19
SW-620 = test system: SW-620
OVCAR-5 = test system: OVCAR-5
OVCAR-3 = test system: OVCAR-3
HOP-62 = test system: HOP-62
DMS-273 = test system: DMS-273
HL-60 = test system: HL-60
NCI-H522 = test system: NCI-H522
NCI-H226 = test system: NCI-H226
HOP-18 = test system: HOP-18
EKVX = test system: EKVX
SF-539 = test system: SF-539
SN12C = test system: SN12C
M19-MEL = test system: M19-MEL
NCI-H23 = test system: NCI-H23
CAKI-1 = test system: CAKI-1
SNB-78 = test system: SNB-78
HOP-92 = test system: HOP-92

## COc1cccc(-c2cc(O)c3ccccc3n2)c1
KM12
  GI50: 4.03 µM (inactive)
K562
  GI50: 4.72 µM (inactive)
KM-20L2
  GI50: 9.77 µM (inactive)
SK-MEL-5
  GI50: 4.48 µM (inactive)
RPMI-8226
  GI50: 5.45 µM (inactive)
SK-OV-3
  GI50: 5.38 µM (inactive)
UO-31
  GI50: 6.18 µM (inactive)
NCI-H460
  GI50: 4.59 µM (inactive)
ACHN
  GI50: 6.92 µM (inactive)
LXFL 529
  GI50: 4.86 µM (inactive)
COLO 205
  GI50: 4.93 µM (inactive)
UACC-257
  GI50: 2.32 µM (inactive)
HCC 2998
  GI50: 6.58 µM (inactive)
HCT-116
  GI50: 5.53 µM (inactive)
XF498
  GI50: 4.07 µM (inactive)
SK-MEL-2
  GI50: 24.9 µM (inactive)
TK-10
  GI50: > 100 µM (inactive)
MOLT-4
  GI50: 6.55 µM (inactive)
CCRF-CEM
  GI50: 4.56 µM (inactive)
M14
  GI50: 4.82 µM (inactive)
UACC-62
  GI50: 4.06 µM (inactive)
HT-29
  GI50: 3.82 µM (inactive)
LOX IMVI
  GI50: 5.18 µM (inactive)
U-251
  GI50: 9.53 µM (inactive)
IGROV-1
  GI50: 17.2 µM (inactive)
SK-MEL-28
  GI50: > 100 µM (inactive)
RXF 393
  GI50: 2.79 µM (inactive)
SR
  GI50: 5.5 µM (inactive)
HCT-15
  GI50: 4.7 µM
SF-295
  GI50: 2.81 µM (inactive)
OVCAR-8
  GI50: 6.24 µM (inactive)
A549
  GI50: 6.92 µM (inactive)
A498
  GI50: 11.4 µM (inactive)
Malme-3M
  GI50: 3.89 µM (inactive)
OVCAR-4
  GI50: > 100 µM (inactive)
786-0
  GI50: 5.25 µM (inactive)
DLD-1
  GI50: 3.63 µM (inactive)
DMS-114
  GI50: 4.69 µM (inactive)
SF-268
  GI50: 10.3 µM (inactive)
SNB-75
  GI50: 4.98 µM (inactive)
SNB-19
  GI50: 6.82 µM (inactive)
SW-620
  GI50: 3.28 µM (inactive)
OVCAR-5
  GI50: 7.43 µM (inactive)
OVCAR-3
  GI50: 4.2 µM (inactive)
HOP-62
  GI50: 8.18 µM (inactive)
DMS-273
  GI50: 4.53 µM (inactive)
HL-60
  GI50: 2.98 µM (inactive)
NCI-H522
  GI50: 3.06 µM (inactive)
NCI-H226
  GI50: 6.89 µM (inactive)
HOP-18
  GI50: 15.2 µM (inactive)
EKVX
  GI50: 52.2 µM (inactive)
SF-539
  GI50: 3.57 µM (inactive)
SN12C
  GI50: 6.46 µM (inactive)
M19-MEL
  GI50: 8.15 µM (inactive)
NCI-H23
  GI50: 7.52 µM (inactive)

## COc1cc([C@@H]2OCC3C(c4ccc5c(c4)OCO5)OCC32)cc(OC)c1OC (stereo partly drawn)
KM12
  GI50: > 100 µM (inactive)
K562
  GI50: 54.1 µM (inactive)
KM-20L2
  GI50: > 100 µM (inactive)
RPMI-8226
  GI50: 98.9 µM (inactive)
SK-OV-3
  GI50: > 100 µM (inactive)
UO-31
  GI50: > 100 µM (inactive)
NCI-H460
  GI50: > 100 µM (inactive)
ACHN
  GI50: > 100 µM (inactive)
LXFL 529
  GI50: 43.1 µM (inactive)
COLO 205
  GI50: > 100 µM (inactive)
HCC 2998
  GI50: > 100 µM (inactive)
HCT-116
  GI50: 66.7 µM (inactive)
XF498
  GI50: 52.6 µM (inactive)
SK-MEL-2
  GI50: > 100 µM (inactive)
MOLT-4
  GI50: 45.5 µM (inactive)
CCRF-CEM
  GI50: > 100 µM (inactive)
M14
  GI50: > 100 µM (inactive)
HT-29
  GI50: > 100 µM (inactive)
LOX IMVI
  GI50: > 100 µM (inactive)
U-251
  GI50: > 100 µM (inactive)
IGROV-1
  GI50: > 100 µM (inactive)
SK-MEL-28
  GI50: > 100 µM (inactive)
RXF 393
  GI50: > 100 µM (inactive)
SR
  GI50: 91.6 µM (inactive)
HCT-15
  GI50: > 100 µM
CAKI-1
  GI50: > 100 µM (inactive)
SF-295
  GI50: > 100 µM (inactive)
OVCAR-8
  GI50: 81.7 µM (inactive)
A549
  GI50: 71.3 µM (inactive)
A498
  GI50: > 100 µM (inactive)
Malme-3M
  GI50: > 100 µM (inactive)
OVCAR-4
  GI50: > 100 µM (inactive)
786-0
  GI50: > 100 µM (inactive)
DLD-1
  GI50: > 100 µM (inactive)
DMS-114
  GI50: 35.5 µM (inactive)
SNB-78
  GI50: > 100 µM (inactive)
SF-268
  GI50: > 100 µM (inactive)
SNB-75
  GI50: 4.33 µM (inactive)
SNB-19
  GI50: 47.8 µM (inactive)
HOP-92
  GI50: 8.97 µM (inactive)
SW-620
  GI50: > 100 µM (inactive)
OVCAR-5
  GI50: > 100 µM (inactive)
OVCAR-3
  GI50: > 100 µM (inactive)
HOP-62
  GI50: > 100 µM (inactive)
DMS-273
  GI50: 76.4 µM (inactive)
HL-60
  GI50: > 100 µM (inactive)
NCI-H522
  GI50: 49.9 µM (inactive)
NCI-H226
  GI50: 41.3 µM (inactive)
EKVX
  GI50: 47.1 µM (inactive)
SF-539
  GI50: > 100 µM (inactive)
SN12C
  GI50: > 100 µM (inactive)
M19-MEL
  GI50: > 100 µM (inactive)
NCI-H23
  GI50: 43.4 µM (inactive)
